Data from patent publication US11439618B2, “Compositions and methods for lowering triglycerides” (Amarin Pharmaceuticals Ireland Limited, priority 2009, dated 2022).

Test: Essential fatty acid (EFA) parameters in plasma and RBC, gas chromatography of fatty acid methyl esters
Format: in vivo, human
Method: Blood samples (10 mL) were collected at Visit 1 (screening) and at Visits 4, 5 and 6. Analysis was performed by MSR Lipid Analysis, Scottish Crop Research Institute, Dundee, UK. The screening sample acted as baseline for the EFA measurements. Lipid was extracted from plasma, serum and RBC suspensions and converted into fatty acid methyl esters which were analyzed by gas chromatography to give fatty acid profiles as micrograms fatty acid per gram of sample (μgFA/g) and normalized area percent.
RBC and plasma EFA data were collected at baseline, Day 14, 28 and 42 and summarized by visit for each treatment group. Change from baseline and percent change from baseline were also summarized. ANCOVA comparison of ethyl-EPA dose groups and ethyl-EPA versus placebo was performed.
Notable changes for these parameters occurred in the ethyl-EPA treatment groups at Days 14, 28 and 42 compared to placebo.

CC/C=C\C/C=C\C/C=C\C/C=C\C/C=C\CCCC(=O)OCC [Ethyl-EPA, all-cis eicosa-5,8,11,14,17-pentaenoic acid ethyl ester]
AA Mean at Baseline (RBC, 1 g daily group, Baseline): 171.2 µg/g
DGLA Mean at Baseline (RBC, 1 g daily group, Baseline): 23.0 µg/g
DHA Mean at Baseline (RBC, 1 g daily group, Baseline): 66.5 µg/g
DPAn-3 Mean at Baseline (RBC, 1 g daily group, Baseline): 34.1 µg/g
EPA Mean at Baseline (RBC, 1 g daily group, Baseline): 19.8 µg/g
EPA/AA Mean (SD) at Baseline (RBC, 1 g daily group, Baseline): 0.1 (0.07)
AA Mean change from Baseline (RBC, 1 g daily, Day 14): -8.1 µg/g
DGLA Mean change from Baseline (RBC, 1 g daily, Day 14): -2.7 µg/g
DHA Mean change from Baseline (RBC, 1 g daily, Day 14): -4.6 µg/g
DPAn-3 Mean change from Baseline (RBC, 1 g daily, Day 14): 0.9 µg/g
EPA Mean change from Baseline (RBC, 1 g daily, Day 14): 12.3 µg/g
EPA/AA Mean (SD) change from Baseline (RBC, 1 g daily, Day 14): 0.1 (0.04)
AA Mean change from Baseline (RBC, 1 g daily, Day 28): -17.0 µg/g
DGLA Mean change from Baseline (RBC, 1 g daily, Day 28): -3.8 µg/g
DHA Mean change from Baseline (RBC, 1 g daily, Day 28): -6.4 µg/g
DPAn-3 Mean change from Baseline (RBC, 1 g daily, Day 28): 3.3 µg/g
EPA Mean change from Baseline (RBC, 1 g daily, Day 28): 14.5 µg/g
EPA/AA Mean (SD) change from Baseline (RBC, 1 g daily, Day 28): 0.1 (0.05)
AA Mean change from Baseline (RBC, 1 g daily, Day 42): -14.2 µg/g
DGLA Mean change from Baseline (RBC, 1 g daily, Day 42): -3.5 µg/g
DHA Mean change from Baseline (RBC, 1 g daily, Day 42): -7.0 µg/g
DPAn-3 Mean change from Baseline (RBC, 1 g daily, Day 42): 6.5 µg/g
EPA Mean change from Baseline (RBC, 1 g daily, Day 42): 17.6 µg/g
EPA/AA Mean (SD) change from Baseline (RBC, 1 g daily, Day 42): 0.1 (0.06)
AA LS Mean, 1 or 2 g versus 4 g (RBC, 1 g versus 4 g): 8.4 µg/g
DGLA LS Mean, 1 or 2 g versus 4 g (RBC, 1 g versus 4 g): 1.5 µg/g
DHA LS Mean, 1 or 2 g versus 4 g (RBC, 1 g versus 4 g): 1.0 µg/g
DPAn-3 LS Mean, 1 or 2 g versus 4 g (RBC, 1 g versus 4 g): -6.2 µg/g
EPA LS Mean, 1 or 2 g versus 4 g (RBC, 1 g versus 4 g): -24.4 µg/g
EPA/AA LS Mean, 1 or 2 g versus 4 g (RBC, 1 g versus 4 g): −0.18
AA Mean at Baseline (RBC, 2 g daily group, Baseline): 172.8 µg/g
DGLA Mean at Baseline (RBC, 2 g daily group, Baseline): 23.0 µg/g
DHA Mean at Baseline (RBC, 2 g daily group, Baseline): 64.8 µg/g
DPAn-3 Mean at Baseline (RBC, 2 g daily group, Baseline): 33.2 µg/g
EPA Mean at Baseline (RBC, 2 g daily group, Baseline): 18.9 µg/g
EPA/AA Mean (SD) at Baseline (RBC, 2 g daily group, Baseline): 0.1 (0.06)
AA Mean change from Baseline (RBC, 2 g daily, Day 14): -3.1 µg/g
DGLA Mean change from Baseline (RBC, 2 g daily, Day 14): -2.6 µg/g
DHA Mean change from Baseline (RBC, 2 g daily, Day 14): -2.0 µg/g
DPAn-3 Mean change from Baseline (RBC, 2 g daily, Day 14): 5.6 µg/g
EPA Mean change from Baseline (RBC, 2 g daily, Day 14): 26.9 µg/g
EPA/AA Mean (SD) change from Baseline (RBC, 2 g daily, Day 14): 0.2 (0.04)
AA Mean change from Baseline (RBC, 2 g daily, Day 28): -14.1 µg/g
DGLA Mean change from Baseline (RBC, 2 g daily, Day 28): -4.5 µg/g
DHA Mean change from Baseline (RBC, 2 g daily, Day 28): -6.2 µg/g
DPAn-3 Mean change from Baseline (RBC, 2 g daily, Day 28): 9.4 µg/g
EPA Mean change from Baseline (RBC, 2 g daily, Day 28): 32.9 µg/g
EPA/AA Mean (SD) change from Baseline (RBC, 2 g daily, Day 28): 0.02 (0.06)
AA Mean change from Baseline (RBC, 2 g daily, Day 42): -18.8 µg/g
DGLA Mean change from Baseline (RBC, 2 g daily, Day 42): -5.3 µg/g
DHA Mean change from Baseline (RBC, 2 g daily, Day 42): -6.3 µg/g
DPAn-3 Mean change from Baseline (RBC, 2 g daily, Day 42): 13.2 µg/g
EPA Mean change from Baseline (RBC, 2 g daily, Day 42): 38.3 µg/g
EPA/AA Mean (SD) change from Baseline (RBC, 2 g daily, Day 42): 0.3 (0.06)
AA LS Mean, 1 or 2 g versus 4 g (RBC, 2 g versus 4 g): 9.8 µg/g
DGLA LS Mean, 1 or 2 g versus 4 g (RBC, 2 g versus 4 g): 1.5 µg/g
DHA LS Mean, 1 or 2 g versus 4 g (RBC, 2 g versus 4 g): 1.0 µg/g
DPAn-3 LS Mean, 1 or 2 g versus 4 g (RBC, 2 g versus 4 g): -2.5 µg/g
EPA LS Mean, 1 or 2 g versus 4 g (RBC, 2 g versus 4 g): -11.8 µg/g
EPA/AA LS Mean, 1 or 2 g versus 4 g (RBC, 2 g versus 4 g): −0.11
AA Mean (SD) at Baseline (RBC, 4 g daily group, Baseline): 171.0 (25.17) μg/g
DGLA Mean at Baseline (RBC, 4 g daily group, Baseline): 24.0 µg/g
DHA Mean at Baseline (RBC, 4 g daily group, Baseline): 68.3 µg/g
DPAn-3 Mean at Baseline (RBC, 4 g daily group, Baseline): 34.5 µg/g
EPA Mean at Baseline (RBC, 4 g daily group, Baseline): 19.8 µg/g
EPA/AA Mean (SD) at Baseline (RBC, 4 g daily group, Baseline): 0.1 (0.04)
AA Mean (SD) change from Baseline (RBC, 4 g daily, Day 14): −15.7 (26.76) μg/g
DGLA Mean change from Baseline (RBC, 4 g daily, Day 14): -5.3 µg/g
DHA Mean change from Baseline (RBC, 4 g daily, Day 14): -6.9 µg/g
DPAn-3 Mean change from Baseline (RBC, 4 g daily, Day 14): 5.4 µg/g
EPA Mean change from Baseline (RBC, 4 g daily, Day 14): 39.5 µg/g
EPA/AA Mean (SD) change from Baseline (RBC, 4 g daily, Day 14): 0.3 (0.07)
AA Mean (SD) change from Baseline (RBC, 4 g daily, Day 28): −22.8 (29.56) μg/g
DGLA Mean change from Baseline (RBC, 4 g daily, Day 28): -7.1 µg/g
DHA Mean change from Baseline (RBC, 4 g daily, Day 28): -8.7 µg/g
DPAn-3 Mean change from Baseline (RBC, 4 g daily, Day 28): 12.4 µg/g
EPA Mean change from Baseline (RBC, 4 g daily, Day 28): 50.2 µg/g
EPA/AA Mean (SD) change from Baseline (RBC, 4 g daily, Day 28): 0.4 (0.11)
AA Mean (SD) change from Baseline (RBC, 4 g daily, Day 42): −34.4 (31.44) μg/g
DGLA Mean change from Baseline (RBC, 4 g daily, Day 42): -8.0 µg/g
DHA Mean change from Baseline (RBC, 4 g daily, Day 42): -13.8 µg/g
DPAn-3 Mean change from Baseline (RBC, 4 g daily, Day 42): 16.2 µg/g
EPA Mean change from Baseline (RBC, 4 g daily, Day 42): 52.5 µg/g
EPA/AA Mean (SD) change from Baseline (RBC, 4 g daily, Day 42): 0.4 (0.14)
Difference in EPA, AA (RBC only), DPAn-3, DGLA (1 g only for plasma) and EPA/AA ratio levels, 4 g compared to 1 g and 2 g (plasma and RBC, LS means, p≤0.05): significantly (LS means, p≤0.05) different
